In PubChem BioAssay AID1963976 (Molecular Pharmacology Branch, DTP, NCI, 2024):
Each block holds one molecule with its values, some of them ahead of it.

Tested on: 435261-313-R-J1-PDC tumor spheroid viability
Assay: Anticancer human tumor 435261-313-R-J1-PDC patient-derived colon adenocarcinoma cell line growth inhibition [PI3K]
Details: spheroids with HUVEC and MSC; for IC50: curve of first compound; for viability, T/C: stronger effect = lower value
In short: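 Tumor cells grown as multi-cell spheroids with HUVEC endothelial cells and MSC fibroblast-like stroma were treated with targeted agents combined with inavolisib, alpelisib, duvelisib or copanlisib. Doses fell in half-log steps from near clinical Cmax, else from 10 microM. Viability was measured.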

[1] = second compound 0.0316 µM, first compound 0.0316 µM
[2] = second compound 0.0316 µM, first compound 0.1 µM
[3] = second compound 0.0316 µM, first compound 0.316 µM
[4] = second compound 0.0316 µM, first compound 1 µM
[5] = second compound 0.0316 µM, first compound 3.16 µM
[6] = second compound 0.0316 µM, first compound 10 µM
[7] = second compound 0.1 µM, first compound 0.0316 µM
[8] = second compound 0.1 µM, first compound 0.1 µM
[9] = second compound 0.1 µM, first compound 0.316 µM
[10] = second compound 0.1 µM, first compound 1 µM
[11] = second compound 0.1 µM, first compound 3.16 µM
[12] = second compound 0.1 µM, first compound 10 µM
[13] = second compound 0.316 µM, first compound 0.0316 µM
[14] = second compound 0.316 µM, first compound 0.1 µM
[15] = second compound 0.316 µM, first compound 0.316 µM
[16] = second compound 0.316 µM, first compound 1 µM
[17] = second compound 0.316 µM, first compound 3.16 µM
[18] = second compound 0.316 µM, first compound 10 µM
[19] = second compound 1 µM, first compound 0.0316 µM
[20] = second compound 1 µM, first compound 0.1 µM
[21] = second compound 1 µM, first compound 0.316 µM
[22] = second compound 1 µM, first compound 1 µM
[23] = second compound 1 µM, first compound 3.16 µM
[24] = second compound 1 µM, first compound 10 µM
[25] = second compound 3.16 µM, first compound 0.0316 µM
[26] = second compound 3.16 µM, first compound 0.1 µM
[27] = second compound 3.16 µM, first compound 0.316 µM
[28] = second compound 3.16 µM, first compound 1 µM
[29] = second compound 3.16 µM, first compound 3.16 µM
[30] = second compound 3.16 µM, first compound 10 µM
[31] = second compound 10 µM, first compound 0.0316 µM
[32] = second compound 10 µM, first compound 0.1 µM
[33] = second compound 10 µM, first compound 0.316 µM
[34] = second compound 10 µM, first compound 1 µM
[35] = second compound 10 µM, first compound 3.16 µM
[36] = second compound 10 µM, first compound 10 µM
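Further: spheroids exposed to compounds for 7 days.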

- IC50 (second compound 0.0316 µM): > 10 µM
- IC50 (second compound 0.1 µM): > 10 µM
- IC50 (second compound 0.316 µM): > 10 µM
- IC50 (second compound 1 µM): > 10 µM
- IC50 (second compound 3.16 µM): > 10 µM
- IC50 (second compound 10 µM): < 0.0316 µM
Compound: CC1(C)CCC(CN2CCN(c3ccc(C(=O)NS(=O)(=O)c4ccc(NCC5CCOCC5)c([N+](=O)[O-])c4)c(Oc4cnc5[nH]ccc5c4)c3)CC2)=C(c2ccc(Cl)cc2)C1 + CC(Nc1ncnc2nc[nH]c12)c1cc2cccc(Cl)c2c(=O)n1-c1ccccc1
- viability, T/C [1]: 79.5%
- viability, T/C [2]: 92%
- viability, T/C [3]: 71.5%
- viability, T/C [4]: 80%
- viability, T/C [5]: 86.9%
- viability, T/C [6]: 95%
- viability, T/C [7]: 66.1%
- viability, T/C [8]: 78.2%
- viability, T/C [9]: 81.3%
- viability, T/C [10]: 71.6%
- viability, T/C [11]: 94.5%
- viability, T/C [12]: 84.9%
- viability, T/C [13]: 77.5%
- viability, T/C [14]: 100%
- viability, T/C [15]: 87.2%
- viability, T/C [16]: 77.3%
- viability, T/C [17]: 77.4%
- viability, T/C [18]: 52.2%
- viability, T/C [19]: 87.6%
- viability, T/C [20]: 66.1%
- viability, T/C [21]: 66.4%
- viability, T/C [22]: 64%
- viability, T/C [23]: 73.2%
- viability, T/C [24]: 46.6%
- viability, T/C [25]: 65.3%
- viability, T/C [26]: 72.6%
- viability, T/C [27]: 87.2%
- viability, T/C [28]: 72.3%
- viability, T/C [29]: 77%
- viability, T/C [30]: 76.7%
- viability, T/C [31]: 41.6%
- viability, T/C [32]: 60.8%
- viability, T/C [33]: 32.7%
- viability, T/C [34]: 62.9%
- viability, T/C [35]: 50.3%
- viability, T/C [36]: 43.9%

- IC50 (second compound 0.0316 µM): > 10 µM
- IC50 (second compound 0.1 µM): > 10 µM
- IC50 (second compound 0.316 µM): > 10 µM
- IC50 (second compound 1 µM): < 0.0316 µM
- IC50 (second compound 3.16 µM): < 0.0316 µM
- IC50 (second compound 10 µM): < 0.0316 µM
Compound: C=CC(=O)N1CCN(c2nc(=O)n(-c3c(C)ccnc3C(C)C)c3nc(-c4c(O)cccc4F)c(F)cc23)C(C)C1 (centres undefined) + Cc1nc(NC(=O)N2CCCC2C(N)=O)sc1-c1ccnc(C(C)(C)C(F)(F)F)c1
- viability, T/C [1]: 70.5%
- viability, T/C [2]: 84%
- viability, T/C [3]: 80.8%
- viability, T/C [4]: 91.5%
- viability, T/C [5]: 112%
- viability, T/C [6]: 121%
- viability, T/C [7]: 71.5%
- viability, T/C [8]: 71.3%
- viability, T/C [9]: 73.5%
- viability, T/C [10]: 75%
- viability, T/C [11]: 129%
- viability, T/C [12]: 119%
- viability, T/C [13]: 49.5%
- viability, T/C [14]: 52.4%
- viability, T/C [15]: 56.9%
- viability, T/C [16]: 58.4%
- viability, T/C [17]: 77.1%
- viability, T/C [18]: 78.9%
- viability, T/C [19]: 35.1%
- viability, T/C [20]: 25.1%
- viability, T/C [21]: 27.6%
- viability, T/C [22]: 39.6%
- viability, T/C [23]: 36.6%
- viability, T/C [24]: 54.8%
- viability, T/C [25]: 15.3%
- viability, T/C [26]: 19.4%
- viability, T/C [27]: 17.9%
- viability, T/C [28]: 23%
- viability, T/C [29]: 24.3%
- viability, T/C [30]: 18.6%
- viability, T/C [31]: 9.68%
- viability, T/C [32]: 9.35%
- viability, T/C [33]: 8.96%
- viability, T/C [34]: 9.4%
- viability, T/C [35]: 9.55%
- viability, T/C [36]: 6.21%
